# Literature values in patent US9227980B2, “Methods for the purification of cucurbituril” (CAMBRIDGE ENTERPRISE LIMITED, priority 2009, dated 2016).
row,solubility in water (qualitative),Structure (SMILES)
1,soluble in water,O=C1N2CN3C(=O)N4CN5C(=O)N6CN7C(=O)N8CN9C(=O)N%10CN1C1C2N2CN%11C(=O)N(CN%12C(=O)N(CN%13C(=O)N(CN%14C(=O)N(CN1C2=O)C%10C9%14)C8C7%13)C6C5%12)C4C3%11 (centres unmarked) [CB[5]]
2,are not,O=C1N2CN3C(=O)N4CN5C(=O)N6CN7C(=O)N8CN9C(=O)N%10CN%11C(=O)N%12CN1C1C2N2CN%13C(=O)N(CN%14C(=O)N(CN%15C(=O)N(CN%16C(=O)N(CN%17C(=O)N(CN1C2=O)C%12C%11%17)C%10C9%16)C8C7%15)C6C5%14)C4C3%13 (centres unmarked) [CB[6]]
